Here are results for 3 substances from patent US20200131227A1, “POLYPEPTIDE WITH TUMOUR BINDING ACTIVITY” (RUPRECHT-KARLS-UNIVERSITÄT HEIDELBERG, priority 2017, published 2020).

Data set [1] in a line: Serum stability assay (radio-HPLC). Type of data set: in vitro ADME, human. Here is the method:
Five MBq of the purified ^131I-radiolabeled peptide was incubated in 300 μL human serum at 37° C. After different time intervals (15 min to 24 hours) 20 μL serum was precipitated with 40 μL acetonitrile. The stability of the labeled peptide in the supernatant was monitored by radio-HPLC at selected time points using a chromolith performance RP18ec column (3 mm×100 mm) equipped with a gamma detector (Packard COBRA™ Auto-Gamma, GMI). Separation condition was a gradient of 0% to 60% aqueous acetonitrile supplemented with 0.1% TFA over 10 min with a flow rate of 2 mL/min.

In the next data set the test system is UM-UC-5 cells. As to the kind of experiment: In vitro binding on UM-UC-5 cells. The data set is classed as cell-based, human. As to conditions: 60 min; percent applied dose/10^6 cells. Here is the method:
(§1) For binding studies, 2.5×10^5 to 4×10^5 cells were seeded in 6-well plates and cultivated for 48 hours. Cells were incubated for 60 min with 1 mL serum-free medium containing the ^125I-labeled peptide (see above). For competition experiments, cells were simultaneously exposed to unlabeled (10^-4 M to 10^-10 M) and ^125I-labeled peptides. After three washing steps with PBS (pH 7.4) the cells were lysed with 0.5 mL of 0.3 M NaOH. Experiments concerning the internalization, kinetics and efflux were additionally performed with ^177Lu-DOTA-SFITGv6. To evaluate kinetics and efflux HNO97 cells were incubated for different time intervals (10 min to 480 min) and 60 min, respectively, with ^177Lu-DOTA-SFITGv6 and lysed as described. To continue with the efflux experiment radioactive medium was replaced by non-radioactive medium and cells were incubated again for 60 to 240 min before measuring radioactivity of the cell lysates and the medium. For internalization experiments the cells were exposed to ^177Lu-DOTA-SFITGv6 for different time intervals (10 to 240 min) at 37° C. and 4° C. After three washing steps with PBS the cells were incubated with 1 mL of glycine-HCl 50 mmol/L in PBS (pH 2.8) for 10 min at RT to remove the surface bound activity. […] Radioactivity was determined in a gamma counter and calculated as percentage of the applied dose per 1×10^6 cells. […]

For the next data set, the system named is LUDLU-1 cells. As to the kind of experiment: In vitro binding on LUDLU-1 cells. The data set is classed as cell-based, human. As to conditions: 60 min; percent applied dose/10^6 cells. Here is the method: as §1
In another data set the test system is HNO258 cells. Briefly: In vitro binding on HNO258 cells. Type of data set: cell-based, human. As to conditions: 60 min; percent applied dose/10^6 cells. How it is done: as §1
The next data set has as its system HT29 cells. As to the kind of experiment: In vitro binding on HT29 cells. The data set is classed as cell-based, human. As to conditions: 60 min; percent applied dose/10^6 cells. Here is the method:
as §1

Another data set deals with HNO97 cells. Briefly: In vitro binding, kinetics, internalization and efflux on HNO97 cells. The data set is classed as cell-based, human. How it is done: (§2) For binding studies, 2.5×10^5 to 4×10^5 cells were seeded in 6-well plates and cultivated for 48 hours. Cells were incubated for 60 min with 1 mL serum-free medium containing the ^125I-labeled peptide (see above). For competition experiments, cells were simultaneously exposed to unlabeled (10^-4 M to 10^-10 M) and ^125I-labeled peptides. After three washing steps with PBS (pH 7.4) the cells were lysed with 0.5 mL of 0.3 M NaOH. Experiments concerning the internalization, kinetics and efflux were additionally performed with ^177Lu-DOTA-SFITGv6. To evaluate kinetics and efflux HNO97 cells were incubated for different time intervals (10 min to 480 min) and 60 min, respectively, with ^177Lu-DOTA-SFITGv6 and lysed as described. To continue with the efflux experiment radioactive medium was replaced by non-radioactive medium and cells were incubated again for 60 to 240 min before measuring radioactivity of the cell lysates and the medium. For internalization experiments the cells were exposed to ^177Lu-DOTA-SFITGv6 for different time intervals (10 to 240 min) at 37° C. and 4° C. After three washing steps with PBS the cells were incubated with 1 mL of glycine-HCl 50 mmol/L in PBS (pH 2.8) for 10 min at RT to remove the surface bound activity. Then, cells were washed with 3 mL of ice-cold PBS and lysed as described. Radioactivity was determined in a gamma counter and calculated as percentage of the applied dose per 1×10^6 cells. Experiments were performed three times, and three repetitions per independent experiment were acquired.
(§3) For the assessment of the peptide binding capacity in vitro, 2.5-4×10^5 cells were seeded into 6-well plates and cultivated for 48 h. ^125I-labeled peptide resuspended in 1 mL serum-free medium was added and incubated for either 10 min or 60 min with or without different concentrations of unlabeled peptide (10^−4-10^−11 M). Afterwards, cell monolayers were washed three times with 1 mL phosphate-buffered saline (pH 7.4) to remove unbound peptide and the cells were harvested with 1.4 mL lysis buffer (0.3 M NaOH). To evaluate kinetic properties the cells were exposed to ^177Lu-DOTA-labeled peptides for 10, 30, 60, 120, and 240 min, respectively, and lysed as described. For the efflux experiments the cells were incubated with ^177Lu-DOTA-labeled peptides for 60 min. Thereafter, radioactive medium was replaced by non-radioactive medium and cell monolayers were incubated for additional 60, 120, and 240 min and afterwards lysed as described earlier. The internalization was assessed after exposure of the cells to ^177Lu-DOTA-labeled peptides for 10, 30, 60, 120, and 240 min at 37° C. Unspecifically bound peptide was removed from the surface by incubation with 1 M glycine-HCl solution (pH 2.2) for 10 min. The monolayer cell was rinsed with PBS and cells were lysed as described before. Radioactivity was determined in a y-counter and calculated as percentage of the applied dose per 1×10^6 cells. Experiments were performed three times, and three repetitions per independent experiment were acquired.

For another data set, the system named is carcinoma cell lines. Briefly: In vitro binding of radiolabeled peptides to several carcinoma cell lines. The data set is classed as cell-based, human. As to conditions: for binding of ^125I-labeled peptide with unlabeled peptide as competitor: co-incubation with 10^-6 M unlabeled peptide, 60 min, all cell lines tested. Here is the method: as §2, §3
Another data set deals with HNO399 cells. Briefly: In vitro binding on HNO399 cells. The data set is classed as cell-based, human. As to conditions: 60 min; percent applied dose/10^6 cells. Here is the method:
as §3, with “To evaluate kinetic properties the cells were exposed to ^177Lu-DOTA-labeled peptides for 10, 30, 60, 120, and 240 min, respectively, and lysed as described.” left out, “The internalization was assessed after exposure of the cells to ^177Lu-DOTA-labeled peptides for 10, 30, 60, 120, and 240 min at 37° C.” left out

Another data set deals with HNO210 cells. Briefly: In vitro binding on HNO210 cells. Type of data set: cell-based, human. As to conditions: 60 min; percent applied dose/10^6 cells. Here is the method:
For binding studies, 2.5×10^5 to 4×10^5 cells were seeded in 6-well plates and cultivated for 48 hours. Cells were incubated for 60 min with 1 mL serum-free medium containing the ^125I-labeled peptide (see above). For competition experiments, cells were simultaneously exposed to unlabeled (10^-4 M to 10^-10 M) and ^125I-labeled peptides. After three washing steps with PBS (pH 7.4) the cells were lysed with 0.5 mL of 0.3 M NaOH. Experiments concerning the internalization, kinetics and efflux were additionally performed with ^177Lu-DOTA-SFITGv6. […] To continue with the efflux experiment radioactive medium was replaced by non-radioactive medium and cells were incubated again for 60 to 240 min before measuring radioactivity of the cell lysates and the medium. […] Radioactivity was determined in a gamma counter and calculated as percentage of the applied dose per 1×10^6 cells. […]
For the assessment of the peptide binding capacity in vitro, 2.5-4×10^5 cells were seeded into 6-well plates and cultivated for 48 h. ^125I-labeled peptide resuspended in 1 mL serum-free medium was added and incubated for either 10 min or 60 min with or without different concentrations of unlabeled peptide (10^−4-10^−11 M). […] The internalization was assessed after exposure of the cells to ^177Lu-DOTA-labeled peptides for 10, 30, 60, 120, and 240 min at 37° C. […]

A further data set deals with MCF-7 cells. As to the kind of experiment: In vitro binding on MCF-7 cells. Type of data set: cell-based, human. As to conditions: 60 min; percent applied dose/10^6 cells. Here is the method:
as §1

“And” between values parts separate entries of the source, which are not always exact repeats. Identical values can stand only once. *1 amine or outer side, *2 acyl side, *3 side chain or, on linkers, in order; H or OH if unused. Bridges are numbered along the chain shown (N, C = ends). Roman numbers before positions name the chains, in order. Where no end group is shown, it is not given here. [ ]: non-standard residue; d: D form. The star is where a group is joined. ξ: configuration not given here. DOTA = O=C(O)CN1CCN(CC(=O)O)CCN(CC(=O)*)CCN(CC(=O)O)CC1; 125I = iodine-125 label on tyrosine, [125I]*; X1 = O=C(CO/N=C/C(=O)[*:2])[*:1]; ξK = NCCCCC(N)C(=O)O; ξS = NC(CO)C(=O)O

“^125I-SFITGv6: ^125I-labeled SFITGv6 (GRCTFRGDLMQLCY(125I)PD; disulfide 3-13)”: the “proteolytic stability in human serum” value in data set [1] is “no degradation over a 24 hours”. In addition, the “binding of ^125I-labeled peptide” value is 10.4% with UM-UC-5 cells; 4.3% in the data set on LUDLU-1 cells; 3.5% in the data set on HNO258 cells; 2.8% in the data set on HT29 cells; 9.8% with HNO399 cells; 7.1% and 10.5% in the data set with HNO210 cells. For the same substance, the “retention of radioactivity in cells (efflux experiment)” value in the data set with HNO97 cells (240 min after termination of the uptake (1 h exposure), of originally accumulated activity) was “less than 5%”. The “maximal uptake of ^125I-labeled peptide (kinetics)” value with HNO97 cells (after exposure for 60 min) turned out to be 37.3%. Besides, the “internalization of ^125I-labeled peptide after decrease” value in the data set on HNO97 cells (decrease following the 60 min maximum) is 12.6%. The “maximal internalization of ^125I-labeled peptide” value in the data set on HNO97 cells (within 60 min) is given as “up to 24.1%”. Also, the “competition of binding by non-radioactively labeled counterpart” value with carcinoma cell lines (10^−6 M competitor, all tested HNSCC cell lines) is given as “almost completely competed”. In addition, the “competition of binding by unlabeled analog” value with carcinoma cell lines (10^−6 M unlabeled analog) is “more than 90%”. For the same substance, the “average specific binding of ^125I-labeled peptide” value with carcinoma cell lines (HNO97, other HNSCC, lung, bladder and colon carcinoma cell lines) is listed as 7%. In addition, the “binding of ^125I-labeled peptide with unlabeled peptide as competitor” value in the data set on carcinoma cell lines is listed as “below 1 % of the applied dose”.
As for “^125I-SFPF-10: ^125I-labeled peptide SFPF-10 (GRCTFRGDKMQLCY(125I)PD; disulfide 3-13 (inferred))”, the entries for the “binding of ^125I-labeled peptide” value in the data set on UM-UC-5 cells, with HNO258 cells and in the data set with MCF-7 cells were 7.5%, 2.6% and 1.6%, respectively. Also, the “maximal uptake of ^125I-labeled peptide (kinetics)” value with HNO97 cells (after exposure for 120 min) was found to be 12.6%. Moreover, in the data set with HNO97 cells (decrease following the 120 min maximum), the “uptake of ^125I-labeled peptide after decrease (kinetics)” value was found to be 6.7%. In addition, the “binding of ^125I-labeled peptide with unlabeled peptide as competitor” value in the data set on carcinoma cell lines is on record as “below 1 % of the applied dose”.
Turning to “I: GRCTGRGDLGRLCYPD-NH2 / II: GRCTGRGDLGRLCYPD-NH2 / III: GRCTGRGDLGRLCYPD-NH2 / IV: {DOTA}-G[ξS]G[ξS][ξK]G[ξS]G[ξS][ξK]G[ξS]G[ξS][ξK]-NH2 (disulfide I:3-I:13, II:3-II:13, III:3-III:13; linker I:N-IV:15, II:N-IV:10, III:N-IV:5 via X1) [^125I-DOTA-SFLAP3-trimer]”, in the data set with Capan-2 cells, half-maximal inhibition (IC50) was put at 0.76 nM.

For orientation: IC50 means the concentration that inhibits the measured activity by half. Low readings indicate higher potency, high ones lower potency.
